According to patent US7888369B2, “Oxazoloisoquinoline derivatives as thrombin receptor antagonists” (Schering Corporation, priority 2005, dated 2011):

Target: T1, thrombin receptor (Homo sapiens, UniProt P25116)
T1 construct: tissue North Jersey Blood Center (East Orange, N.J.); host or cells: platelet membranes prepared from platelet concentrates
T1 sequence (P25116 22-425): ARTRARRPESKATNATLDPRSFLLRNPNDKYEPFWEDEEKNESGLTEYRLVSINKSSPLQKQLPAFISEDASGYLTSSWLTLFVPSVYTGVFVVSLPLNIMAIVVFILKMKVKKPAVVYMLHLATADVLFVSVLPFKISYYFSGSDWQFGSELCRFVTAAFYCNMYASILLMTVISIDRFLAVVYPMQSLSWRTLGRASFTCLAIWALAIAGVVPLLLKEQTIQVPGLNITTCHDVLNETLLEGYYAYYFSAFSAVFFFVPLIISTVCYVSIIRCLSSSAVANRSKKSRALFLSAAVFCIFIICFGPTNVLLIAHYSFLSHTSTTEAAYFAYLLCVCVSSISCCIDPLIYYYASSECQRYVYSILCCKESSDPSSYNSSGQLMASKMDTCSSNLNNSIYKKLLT
Experiment: High throughput thrombin receptor radioligand binding assay ([3H]haTRAP, platelet membranes)
Procedure: In Vitro Testing Procedure for Thrombin Receptor Antagonists:
Preparation of [^3H]ha TRAP
A(pF-F)R(ChA)(hR)(I2—Y)—NH2 (1.03 mg) and 10% Pd/C (5.07 mg) were suspended in DMF (250 μl) and diisopropylethylamine (10 μl). The vessel was attached to the tritium line, frozen in liquid nitrogen and evacuated. Tritium gas (342 mCi) was then added to the flask, which was stirred at room temperature for 2 hours. At the completion of the reaction, the excess tritium was removed and the reacted peptide solution was diluted with DMF (0.5 ml) and filtered to remove the catalyst. The collected DMF solution of the crude peptide was diluted with water and freeze dried to remove the labile tritium. The solid peptide was redissolved in water and the freeze drying process repeated. The tritiated peptide ([^3H]haTRAP) was dissolved in 0.5 ml of 0.1% aqueous TFA and purified by HPLC using the following conditions: column, Vydac™ C18, 25 cm×9.4 mm I.D.; mobile phase, (A) 0.1% TFA in water, (B) 0.1% TFA in CH3CN; gradient, (A/B) from 100/0 to 40/60 over 30 min; flow rate, 5 ml/min; detection, UV at 215 nm. The radiochemical purity of [^3H]haTRAP was 99% as analyzed by HPLC. A batch of 14.9 mCi at a specific activity of 18.4 Ci/mmol was obtained.
Preparation of Platelet Membranes
Platelet membranes were prepared using a modification of the method of Natarajan et al. (Natarajan et al, Int. J. Peptide Protein Res. 45:145-151 (1995)) from 20 units of platelet concentrates obtained from the North Jersey Blood Center (East Orange, N.J.) within 48 hours of collection. All steps were carried out at 4° C. under approved biohazard safety conditions. Platelets were centrifuged at 100×g for 20 minutes at 4° C. to remove red cells. The supernatants were decanted and centrifuged at 3000×g for 15 minutes to pellet platelets. Platelets were re-suspended in 10 mM Tris-HCl, pH 7.5, 150 mM NaCl, 5 mM EDTA, to a total volume of 200 ml and centrifuged at 4400×g for 10 minutes. This step was repeated two additional times. […] Protein concentration was determined by a Lowry assay (Lowry et al., J. Biol. Chem., 193:265-275 (1951)). […]

SMILES: O=C1OC[C@@H]2C(/C=C/c3ccc(-c4cccc(F)c4)cn3)c3ccccc3CN12 (single isomer, unassigned) [Compound 12, 10-{2-[5-(3-Fluoro-phenyl)-pyridin-2-yl]-vinyl}-1,5,10,10a-tetrahydro-oxazolo[3,4-b]isoquinolin-3-one]
- inhibition at 1 µM (at 1 μM, read-out: Thrombin Receptor Antagonist Activity: % inhibition): 27%

SMILES: O=C1OC[C@@H]2C(/C=C/c3ccc(-c4cccc(F)c4)cn3)c3ccccc3CN12 (single isomer, unassigned) [Compound 13, 10-{2-[5-(3-Fluoro-phenyl)-pyridin-2-yl]-vinyl}-1,5,10,10a-tetrahydro-oxazolo[3,4-b]isoquinolin-3-one]
- Thrombin Receptor Antagonist Activity: % inhibition (at 1 μM): 15%

SMILES: O=C1OC[C@@H]2C(/C=C/c3ccc(-c4cccc(F)c4)cn3)C3CCCCC3CN12 (stereo partly drawn) [Compound 16]
- Ki: 0.012 µM
